# According to US20140323504A1, “Pyrazolo[4,3-c]Pyridine Derivatives As Kinase Inhibitors” (Cellzome Limited, priority 2011, published 2014):
# Entries after “also recorded” stand apart in the source; their conditions may differ.
# Molecular target: T1, JAK3 (Homo sapiens, UniProt P52333)
# T1 sequence (P52333 1-1124): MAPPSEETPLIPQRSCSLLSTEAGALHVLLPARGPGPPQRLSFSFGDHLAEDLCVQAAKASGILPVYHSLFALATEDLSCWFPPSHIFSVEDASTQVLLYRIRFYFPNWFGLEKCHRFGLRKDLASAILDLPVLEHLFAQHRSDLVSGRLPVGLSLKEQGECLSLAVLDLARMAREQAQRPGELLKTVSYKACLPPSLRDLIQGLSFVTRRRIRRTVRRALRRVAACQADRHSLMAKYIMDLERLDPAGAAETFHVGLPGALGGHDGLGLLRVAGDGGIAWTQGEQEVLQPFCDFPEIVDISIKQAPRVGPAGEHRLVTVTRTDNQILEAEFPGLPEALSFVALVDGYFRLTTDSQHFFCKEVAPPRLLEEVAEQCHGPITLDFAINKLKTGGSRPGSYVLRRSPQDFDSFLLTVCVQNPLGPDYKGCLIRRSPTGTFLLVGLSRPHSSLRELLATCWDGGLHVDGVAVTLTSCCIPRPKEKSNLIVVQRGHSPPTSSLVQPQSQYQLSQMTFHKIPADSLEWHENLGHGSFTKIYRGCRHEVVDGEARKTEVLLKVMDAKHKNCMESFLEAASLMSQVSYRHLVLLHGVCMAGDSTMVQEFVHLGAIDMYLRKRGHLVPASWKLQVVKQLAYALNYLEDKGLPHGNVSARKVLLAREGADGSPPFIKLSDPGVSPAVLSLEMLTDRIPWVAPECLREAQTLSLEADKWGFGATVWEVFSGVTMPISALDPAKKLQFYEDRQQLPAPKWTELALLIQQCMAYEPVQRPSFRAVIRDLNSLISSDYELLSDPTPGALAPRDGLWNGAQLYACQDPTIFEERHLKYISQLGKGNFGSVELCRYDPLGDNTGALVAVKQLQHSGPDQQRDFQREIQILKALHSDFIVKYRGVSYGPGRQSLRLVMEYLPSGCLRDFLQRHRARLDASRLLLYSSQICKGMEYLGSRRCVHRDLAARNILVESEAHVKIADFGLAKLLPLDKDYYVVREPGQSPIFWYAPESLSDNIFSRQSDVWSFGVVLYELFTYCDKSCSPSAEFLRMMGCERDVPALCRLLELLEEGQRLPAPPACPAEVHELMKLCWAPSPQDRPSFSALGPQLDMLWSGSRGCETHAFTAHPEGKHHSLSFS
# Assay: Mass spectrometry identification of a JAK3 peptide modified by compound
# Format: binding
# Set-up: endogenous in cells; host or cells: Jurkat cells (ATCC TIB-152, clone E6-1) lysate; immunoprecipitated with anti-JAK3 antibody
# Conditions: Jurkat cell lysate, 10 μM compound, 45 minutes, JAK3 immunoprecipitation, LC-MS/MS
# Experimental: Mass spectrometry analysis of immunoprecipitated JAK3 after compound treatment was used to determine whether compound example 1 covalently binds to JAK3. Jurkat cell lysate was pre-incubated with 10 μM of compound example 1 for 45 minutes. Control samples were incubated without compound (DMSO controls). Subsequently JAK3 was immunoprecipitated with an anti-JAK3 antibody (Abeam ab45141). In addition, a control experiment was performed with anti-IgG (mock immunoprecipitation). The precipitated proteins were separated by SDS-polyacrylamide gel electrophoresis. The gel was stained with colloidal Coomassie and stained areas of each gel lane were cut out and subjected to in-gel proteolytic digestion with trypsin. The peptides originating from the three samples were labeled with iTRAQ reagents as shown in Table 13 and the combined samples were analyzed with a nano-flow liquid chromatography system coupled online to a tandem mass spectrometer (LC-MS/MS) experiment followed by iTRAQ reporter ion quantification in the MSMS spectra (Ross et al., 2004. Mol. Cell. Proteomics 3(12):1154-1169). The gel area containing JAK3 was analysed for 270 minutes with HCDiq (high mass accuracy MSMS spectra) on a Orbitrap Velos mass spectrometer. For the Mascot search standard parameters plus a variable modification of cysteine by compound example 1 was used. […]
smiles,measurement,value
"C=CC(=O)Nc1cccc(Cn2ncc3cnc(Nc4cnn(C)c4)nc32)c1 [Example 1, N-(3-((6-((1-Methyl-1H-pyrazol-4-yl)amino)-1H-pyrazolo[3,4-d]pyrimidin-1-yl)methyl)phenyl)acrylamide]",covalent binding to JAK3 (modified residue/peptide),modified at cysteine 909; also recorded: covalently bound to cystein residue 909 (Cys909) of JAK3
